Test system: HEK293 cells
Assay: Preliminary screening as mRNA vectors, EGFP mRNA transfection of HEK293 cells
Type: cell-based
Conditions: EGFP mRNA 50 ng per well, 96-well plates; percentage of GFP fluorescent cells relative to total number of cells (Hoechst)
Method in brief: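 Screening format: EGFP mRNA transfection (50 ng/well) into HEK293 in 10% FBS-supplemented DMEM. Percent green fluorescent cells, normalised to Hoechst nuclear count, gave the value; Lipofectamine2000 was the reference transfectant.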

| SMILES | Absolute mRNA transfection efficiency in HEK293 cells [%] |
| --- | --- |
| CCCCCCCCCCCNc1nc(NCCN2CCN(C)CC2)nc(SCCCCCCCCCC)n1 [Compound D5S10N11] | 11.0 |
| CCCCCCCCCCCCNc1nc(NCCN2CCN(C)CC2)nc(SCCCCCCCCCC)n1 [Compound D5S10N12] | 3.6 |
| CCCCCCCCCCCCCNc1nc(NCCN2CCN(C)CC2)nc(SCCCCCCCCCC)n1 [Compound D5S10N13] | 4.6 |
| CCCCCCCCCCCCCCCNc1nc(NCCN2CCN(C)CC2)nc(SCCCCCCCCCC)n1 [Compound D5S10N15] | 1.8 |
| CCCCCCCCCCCCCCCCNc1nc(NCCN2CCN(C)CC2)nc(SCCCCCCCCCC)n1 [Compound D5S10N16] | 3.9 |
| CCCCCCCCCCCCCCCCCCNc1nc(NCCN2CCN(C)CC2)nc(SCCCCCCCCCC)n1 [Compound D5S10N18] | 2.3 |
| CCCCCCCCCCCSc1nc(NCCCCCC)nc(NCCN2CCN(C)CC2)n1 [Compound D5S11N6] | 26.9 |
| CCCCCCCCCCCSc1nc(NCCCCCCC)nc(NCCN2CCN(C)CC2)n1 [Compound D5S11N7] | 8.5 |
| CCCCCCCCCCCSc1nc(NCCCCCCCC)nc(NCCN2CCN(C)CC2)n1 [Compound D5S11N8] | 36.2 |
| CCCCCCCCCCCSc1nc(NCCCCCCCCC)nc(NCCN2CCN(C)CC2)n1 [Compound D5S11N9] | 41.5 |
| CCCCCCCCCCCNc1nc(NCCN2CCN(C)CC2)nc(SCCCCCCCCCCC)n1 [Compound D5S11N11] | 36.5 |
| CCCCCCCCCCCCNc1nc(NCCN2CCN(C)CC2)nc(SCCCCCCCCCCC)n1 [Compound D5S11N12] | 22.8 |
| CCCCCCCCCCCCCNc1nc(NCCN2CCN(C)CC2)nc(SCCCCCCCCCCC)n1 [Compound D5S11N13] | 11.2 |
| CCCCCCCCCCCCCCCNc1nc(NCCN2CCN(C)CC2)nc(SCCCCCCCCCCC)n1 [Compound D5S11N15] | 20.4 |
| CCCCCCCCCCCCCCCCNc1nc(NCCN2CCN(C)CC2)nc(SCCCCCCCCCCC)n1 [Compound D5S11N16] | 3.9 |
| CCCCCCCCCCCCCCCCCCNc1nc(NCCN2CCN(C)CC2)nc(SCCCCCCCCCCC)n1 [Compound D5S11N18] | 4.7 |
| CCCCCCCCCCCCSc1nc(NCCCCCC)nc(NCCN2CCN(C)CC2)n1 [Compound D5S12N6] | 0.3 |
| CCCCCCCCCCCCSc1nc(NCCCCCCC)nc(NCCN2CCN(C)CC2)n1 [Compound D5S12N7] | 9.9 |
| CCCCCCCCCCCCSc1nc(NCCCCCCCC)nc(NCCN2CCN(C)CC2)n1 [Compound D5S12N8] | 22.6 |
| CCCCCCCCCCCCSc1nc(NCCCCCCCCC)nc(NCCN2CCN(C)CC2)n1 [Compound D5S12N9] | 26.5 |

| SMILES | Absolute mRNA transfection efficiency in HEK293 cells [%] |
| --- | --- |
| CCCCCCCCCCCCSc1nc(NCCCCCCCCCCC)nc(NCCN2CCN(C)CC2)n1 [Compound D5S12N11] | 1.1 |
| CCCCCCCCCCCCNc1nc(NCCN2CCN(C)CC2)nc(SCCCCCCCCCCCC)n1 [Compound D5S12N12] | 3.5 |
| CCCCCCCCCCCCCNc1nc(NCCN2CCN(C)CC2)nc(SCCCCCCCCCCCC)n1 [Compound D5S12N13] | 0.4 |
| CCCCCCCCCCCCCCCNc1nc(NCCN2CCN(C)CC2)nc(SCCCCCCCCCCCC)n1 [Compound D5S12N15] | 0.8 |
| CCCCCCCCCCCCCCCCNc1nc(NCCN2CCN(C)CC2)nc(SCCCCCCCCCCCC)n1 [Compound D5S12N16] | 3.7 |
| CCCCCCCCCCCCCCCCCCNc1nc(NCCN2CCN(C)CC2)nc(SCCCCCCCCCCCC)n1 [Compound D5S12N18] | 0.0 |
| CCCCCCCCCCCCCCSc1nc(NCCCCCC)nc(NCCN2CCN(C)CC2)n1 [Compound D5S14N6] | 48.0 |
| CCCCCCCCCCCCCCSc1nc(NCCCCCCC)nc(NCCN2CCN(C)CC2)n1 [Compound D5S14N7] | 59.0 |
| CCCCCCCCCCCCCCSc1nc(NCCCCCCCC)nc(NCCN2CCN(C)CC2)n1 [Compound D5S14N8] | 65.6 |
| CCCCCCCCCCCCCCSc1nc(NCCCCCCCCC)nc(NCCN2CCN(C)CC2)n1 [Compound D5S14N9] | 44.9 |
| CCCCCCCCCCCCCCSc1nc(NCCCCCCCCCCC)nc(NCCN2CCN(C)CC2)n1 [Compound D5S14N11] | 19.8 |
| CCCCCCCCCCCCCCSc1nc(NCCCCCCCCCCCC)nc(NCCN2CCN(C)CC2)n1 [Compound D5S14N12] | 11.3 |
| CCCCCCCCCCCCCCSc1nc(NCCCCCCCCCCCCC)nc(NCCN2CCN(C)CC2)n1 [Compound D5S14N13] | 12.9 |
| CCCCCCCCCCCCCCCNc1nc(NCCN2CCN(C)CC2)nc(SCCCCCCCCCCCCCC)n1 [Compound D5S14N15] | 0.3 |
| CCCCCCCCCCCCCCCCNc1nc(NCCN2CCN(C)CC2)nc(SCCCCCCCCCCCCCC)n1 [Compound D5S14N16] | 0.6 |
| CCCCCCCCCCCCCCCCCCNc1nc(NCCN2CCN(C)CC2)nc(SCCCCCCCCCCCCCC)n1 [Compound D5S14N18] | 0.6 |
| CCCCCCCCCCCCCCCSc1nc(NCCCCCC)nc(NCCN2CCN(C)CC2)n1 [Compound D5S15N6] | 45.9 |
| CCCCCCCCCCCCCCCSc1nc(NCCCCCCC)nc(NCCN2CCN(C)CC2)n1 [Compound D5S15N7] | 25.2 |
| CCCCCCCCCCCCCCCSc1nc(NCCCCCCCC)nc(NCCN2CCN(C)CC2)n1 [Compound D5S15N8] | 94.7 |
| CCCCCCCCCCCCCCCSc1nc(NCCCCCCCCC)nc(NCCN2CCN(C)CC2)n1 [Compound D5S15N9] | 22.3 |

| SMILES | Absolute mRNA transfection efficiency in HEK293 cells [%] |
| --- | --- |
| CCCCCCCCCCCCCCCSc1nc(NCCCCCCCCCCC)nc(NCCN2CCN(C)CC2)n1 [Compound D5S15N11] | 12.7 |
| CCCCCCCCCCCCCCCSc1nc(NCCCCCCCCCCCC)nc(NCCN2CCN(C)CC2)n1 [Compound D5S15N12] | 4.3 |
| CCCCCCCCCCCCCCCSc1nc(NCCCCCCCCCCCCC)nc(NCCN2CCN(C)CC2)n1 [Compound D5S15N13] | 1.5 |
| CCCCCCCCCCCCCCCNc1nc(NCCN2CCN(C)CC2)nc(SCCCCCCCCCCCCCCC)n1 [Compound D5S15N15] | 0.7 |
| CCCCCCCCCCCCCCCCNc1nc(NCCN2CCN(C)CC2)nc(SCCCCCCCCCCCCCCC)n1 [Compound D5S15N16] | 1.4 |
| CCCCCCCCCCCCCCCCCCNc1nc(NCCN2CCN(C)CC2)nc(SCCCCCCCCCCCCCCC)n1 [Compound D5S15N18] | 1.7 |
| CCCCCCCCCCCCCCCCSc1nc(NCCCCCC)nc(NCCN2CCN(C)CC2)n1 [Compound D5S16N6] | 63.2 |
| CCCCCCCCCCCCCCCCSc1nc(NCCCCCCC)nc(NCCN2CCN(C)CC2)n1 [Compound D5S16N7] | 82.6 |
| CCCCCCCCCCCCCCCCSc1nc(NCCCCCCCC)nc(NCCN2CCN(C)CC2)n1 [Compound D5S16N8] | 72.2 |
| CCCCCCCCCCCCCCCCSc1nc(NCCCCCCCCC)nc(NCCN2CCN(C)CC2)n1 [Compound D5S16N9] | 68.1 |
| CCCCCCCCCCCCCCCCSc1nc(NCCCCCCCCCCC)nc(NCCN2CCN(C)CC2)n1 [Compound D5S16N11] | 45.0 |
| CCCCCCCCCCCCCCCCSc1nc(NCCCCCCCCCCCC)nc(NCCN2CCN(C)CC2)n1 [Compound D5S16N12] | 3.4 |
| CCCCCCCCCCCCCCCCSc1nc(NCCCCCCCCCCCCC)nc(NCCN2CCN(C)CC2)n1 [Compound D5S16N13] | 0.7 |
| CCCCCCCCCCCCCCCCSc1nc(NCCCCCCCCCCCCCCC)nc(NCCN2CCN(C)CC2)n1 [Compound D5S16N15] | 0.1 |
| CCCCCCCCCCCCCCCCNc1nc(NCCN2CCN(C)CC2)nc(SCCCCCCCCCCCCCCCC)n1 [Compound D5S16N16] | 0.1 |
| CCCCCCCCCCCCCCCCCCNc1nc(NCCN2CCN(C)CC2)nc(SCCCCCCCCCCCCCCCC)n1 [Compound D5S16N18] | 0.2 |
| CCCCCCCCCCCCCCCCCCSc1nc(NCCCCCC)nc(NCCN2CCN(C)CC2)n1 [Compound D5S18N6] | 73.2 |
| CCCCCCCCCCCCCCCCCCSc1nc(NCCCCCCC)nc(NCCN2CCN(C)CC2)n1 [Compound D5S18N7] | 67.7 |
